Test results reported in patent publication EP0217101A1, “Substituted diphenyl ethers, process for their preparation and their use as herbicides” (HOECHST AKTIENGESELLSCHAFT, priority 1985, dated 1987).

Key:
Assay type in all cases: in vivo
Stellaria media [1] = assay: Weed control post-emergence (greenhouse pot test); design: key: 0: = ohne Wirkung bzw. Schaden; 1: = 0 - 20 % Wirkung bzw. Schaden; = 20 - 40 % Wirkung bzw. Schaden; 3: = 40 - 60 % Wirkung bzw. Schaden; 4: = 60 - 80 % Wirkung bzw. Schaden; 5: = 80 - 100 % Wirkung bzw. Schaden; details: post-emergence (three-leaf stage), 2,5 kg a.i./ha, visual rating after ca. 3-4 weeks
Excerpt: (§1) Die Schädigung der Unkrautpflanzen bzw. die Kulturpflanzenverträglichkeit wurde gemäß einem Schlüssel bonitiert, in dem die Wirksamkeit durch Wertzahlen von 0 - 5 ausgedrückt ist. Dabei bedeutet:
(§2) Samen bzw. Rhizomstüeke von mono- und dikotylen Unkräutern wurden in Plasstiktöpfen (φ= 9 cm) in sandigem Lehmboden ausgelegt, mit Erde abgedeckt und im Gewächshaus unter guten Wachstumsbedingungen angezogen. Drei Wochen nach der Aussaat wurden die Versuchspflanzen im Dreiblattstadium behandelt. Die als Spritzpulver bzw. als Eτulsionskonzentrate formulierten erfindungsgemäßen Verbindungen wurden in verschiedenen Dosierungen mit einer Wasseraufwandmenge von umgerechnet 600-800 l/ha auf die grünen Pflanzenteile gesprüht und nach ca. 3-4 Wochen Standzeit der Versuchspflanzen im Gewächshaus unter optimalen Wachstumsbedingungen (Temperatur 23°C +/- 1°C, relative Luftfeuchte 60-80 %) die Wirkung der Präparate optisch im Vergleich zu unbehandelten Kontrollen bonitiert.

Echinochloa crus-galli [2] = assay: Weed control post-emergence (greenhouse pot test); design: key: 0: = ohne Wirkung bzw. Schaden; 1: = 0 - 20 % Wirkung bzw. Schaden; = 20 - 40 % Wirkung bzw. Schaden; 3: = 40 - 60 % Wirkung bzw. Schaden; 4: = 60 - 80 % Wirkung bzw. Schaden; 5: = 80 - 100 % Wirkung bzw. Schaden; details: post-emergence (three-leaf stage), 2,5 kg a.i./ha, visual rating after ca. 3-4 weeks
Excerpt: as §1, §2

Avena sativa [3] = assay: Weed control pre-emergence (greenhouse pot test); details: pre-emergence, 2,5 kg a.i./ha, visual rating after 3-4 weeks
Excerpt: as §1
(§3) Samen bzw. Rhizomstücke von mono- und dikotylen Unkrautpflanzen wurden in Plasstiktöpfen (0 = 9 cm) in sandiger Lehmerde ausgelegt und mit Erde abgedeckt. Die in Form von benetzbaren Pulvern oder Emulsionskonzentraten formulierten erfindungsgemäßen Verbindungen wurden dann als wäßrige Suspensionen bzw. Emulsionen mit einer Wasseraufwandmenge von umgerechnet 600-800 1/ha in unterschiedlichen Dosierungen auf die Oberfläche der Abdeckerde appliziert. Nach der Behandlung wurden die Töpfe im Gewächshaus aufgestellt und unter guten Wachstumsbedingungen für die Unkrautpflanzen gehalten (Temperatur 23 plus/minus 1 Grad Celsius, relative Luftfeuchte 60-80 %).
(§4) Die optische Bonitur der Pflanzen- bzw. Auflaufschäden erfolgte nach dem Auflaufen der Versuchspflanzen nach einer Versuchszeit von 3-4 Wochen im Vergleich zu unbehandelten Kontrollen.

Sinapis arvensis [4] = assay: Weed control pre-emergence (greenhouse pot test); details: pre-emergence, 2,5 kg a.i./ha, visual rating after 3-4 weeks
Excerpt: as §1, §3, §4

Chrysanthemum segetum [5] = assay: Weed control pre-emergence (greenhouse pot test); details: pre-emergence, 2,5 kg a.i./ha, visual rating after 3-4 weeks
Excerpt: as §1, §3, §4

Stellaria media [6] = assay: Weed control pre-emergence (greenhouse pot test); design: key: 0: = ohne Wirkung bzw. Schaden; 1: = 0 - 20 % Wirkung bzw. Schaden; = 20 - 40 % Wirkung bzw. Schaden; 3: = 40 - 60 % Wirkung bzw. Schaden; 4: = 60 - 80 % Wirkung bzw. Schaden; 5: = 80 - 100 % Wirkung bzw. Schaden; details: pre-emergence, 2,5 kg a.i./ha, visual rating after 3-4 weeks
Excerpt: as §1, §3, §4

Echinochloa crus-galli [7] = assay: Weed control pre-emergence (greenhouse pot test); design: key: 0: = ohne Wirkung bzw. Schaden; 1: = 0 - 20 % Wirkung bzw. Schaden; = 20 - 40 % Wirkung bzw. Schaden; 3: = 40 - 60 % Wirkung bzw. Schaden; 4: = 60 - 80 % Wirkung bzw. Schaden; 5: = 80 - 100 % Wirkung bzw. Schaden; details: pre-emergence, 2,5 kg a.i./ha, visual rating after 3-4 weeks
Excerpt: as §1, §3, §4

Avena sativa [8] = assay: Weed control post-emergence (greenhouse pot test); details: post-emergence (three-leaf stage), 2,5 kg a.i./ha, visual rating after ca. 3-4 weeks
Excerpt: as §1, §2

Sinapis arvensis [9] = assay: Weed control post-emergence (greenhouse pot test); details: post-emergence (three-leaf stage), 2,5 kg a.i./ha, visual rating after ca. 3-4 weeks
Excerpt: as §1, §2

Chrysanthemum segetum [10] = assay: Weed control post-emergence (greenhouse pot test); details: post-emergence (three-leaf stage), 2,5 kg a.i./ha, visual rating after ca. 3-4 weeks
Excerpt: as §1, §2

| Compound | Herbizide Wirkung im Nachauflauf STM (Stellaria media [1]) | Herbizide Wirkung im Nachauflauf ECG (Echinochloa crus-galli [2]) | Herbizide Wirkung im Vorauflauf AS (Avena sativa [3]) | Herbizide Wirkung im Vorauflauf SIA (Sinapis arvensis [4]) | Herbizide Wirkung im Vorauflauf CRS (Chrysanthemum segetum [5]) | Herbizide Wirkung im Vorauflauf STM (Stellaria media [6]) | Herbizide Wirkung im Vorauflauf ECG (Echinochloa crus-galli [7]) | Herbizide Wirkung im Nachauflauf AS (Avena sativa [8]) | Herbizide Wirkung im Nachauflauf SIA (Sinapis arvensis [9]) | Herbizide Wirkung im Nachauflauf CRS (Chrysanthemum segetum [10]) |
| --- | --- | --- | --- | --- | --- | --- | --- | --- | --- | --- |
| CCOC(OC(=O)c1cc(Oc2ccc(C(F)(F)F)cc2Cl)ccc1[N+](=O)[O-])C(Cl)(Cl)Cl (centres unmarked) [compound 5, 5-(2-Chlor-4-trifluormethylahenoxy)-2-nitrobenzoesäure-2,2,2-trichlor-1-ethoxyethylester] | 2 (= 20 - 40 % Wirkung bzw. Schaden) | 2 (= 20 - 40 % Wirkung bzw. Schaden) | 2 (= 20 - 40 % Wirkung bzw. Schaden) | 5 (= 80 - 100 % Wirkung bzw. Schaden) | 5 (= 80 - 100 % Wirkung bzw. Schaden) | 2 (= 20 - 40 % Wirkung bzw. Schaden) | 3 (= 40 - 60 % Wirkung bzw. Schaden) | 1 (= 0 - 20 % Wirkung bzw. Schaden) | 5 (= 80 - 100 % Wirkung bzw. Schaden) | 4 (= 60 - 80 % Wirkung bzw. Schaden) |
| CC1(C)OCC(COC(OC(=O)c2cc(Oc3ccc(C(F)(F)F)cc3Cl)ccc2[N+](=O)[O-])C(Cl)(Cl)Cl)O1 (centres unmarked) [compound 6, 5-(2-Chlor-4-trifluormethylphenoxy)-2-nitrobenzoesäure-1-(2,2-dimethyl-1,3-dioxolan-4-yl)-methoxy-2,2,2-trichlorethylester] | 3 (= 40 - 60 % Wirkung bzw. Schaden) | 0 | 1 (= 0 - 20 % Wirkung bzw. Schaden) | 2 (= 20 - 40 % Wirkung bzw. Schaden) | 3 (= 40 - 60 % Wirkung bzw. Schaden) | 0 | 0 | 1 (= 0 - 20 % Wirkung bzw. Schaden) | 4 (= 60 - 80 % Wirkung bzw. Schaden) | 4 (= 60 - 80 % Wirkung bzw. Schaden) |
| O=C(OC(OCC(F)(F)C(F)F)C(Cl)(Cl)Cl)c1cc(Oc2ccc(C(F)(F)F)cc2Cl)ccc1[N+](=O)[O-] (centres unmarked) [compound 7] | 5 (= 80 - 100 % Wirkung bzw. Schaden) | 3 (= 40 - 60 % Wirkung bzw. Schaden) | 3 (= 40 - 60 % Wirkung bzw. Schaden) | 3 (= 40 - 60 % Wirkung bzw. Schaden) | 5 (= 80 - 100 % Wirkung bzw. Schaden) | 2 (= 20 - 40 % Wirkung bzw. Schaden) | 5 (= 80 - 100 % Wirkung bzw. Schaden) | 2 (= 20 - 40 % Wirkung bzw. Schaden) | 5 (= 80 - 100 % Wirkung bzw. Schaden) | 5 (= 80 - 100 % Wirkung bzw. Schaden) |
| N#CCCSCCOC(OC(=O)c1cc(Oc2ccc(C(F)(F)F)cc2Cl)ccc1[N+](=O)[O-])C(Cl)(Cl)Cl (centres unmarked) [compound 9] | 0 | 2 (= 20 - 40 % Wirkung bzw. Schaden) | 4 (= 60 - 80 % Wirkung bzw. Schaden) | 4 (= 60 - 80 % Wirkung bzw. Schaden) | 5 (= 80 - 100 % Wirkung bzw. Schaden) | 3 (= 40 - 60 % Wirkung bzw. Schaden) | 4 (= 60 - 80 % Wirkung bzw. Schaden) | 1 (= 0 - 20 % Wirkung bzw. Schaden) | 5 (= 80 - 100 % Wirkung bzw. Schaden) | 4 (= 60 - 80 % Wirkung bzw. Schaden) |
| CCOC(=O)COC(OC(=O)c1cc(Oc2ccc(C(F)(F)F)cc2Cl)ccc1[N+](=O)[O-])C(Cl)(Cl)Cl (centres unmarked) [compound 22] | 3 (= 40 - 60 % Wirkung bzw. Schaden) | 5 (= 80 - 100 % Wirkung bzw. Schaden) | 4 (= 60 - 80 % Wirkung bzw. Schaden) | 5 (= 80 - 100 % Wirkung bzw. Schaden) | 5 (= 80 - 100 % Wirkung bzw. Schaden) | 2 (= 20 - 40 % Wirkung bzw. Schaden) | 5 (= 80 - 100 % Wirkung bzw. Schaden) | 5 (= 80 - 100 % Wirkung bzw. Schaden) | 5 (= 80 - 100 % Wirkung bzw. Schaden) | 5 (= 80 - 100 % Wirkung bzw. Schaden) |
| CCOC(=O)C(C)OC(OC(=O)c1cc(Oc2ccc(C(F)(F)F)cc2Cl)ccc1[N+](=O)[O-])C(Cl)(Cl)Cl (centres unmarked) [compound 23] | 5 (= 80 - 100 % Wirkung bzw. Schaden) | 2 (= 20 - 40 % Wirkung bzw. Schaden) | 5 (= 80 - 100 % Wirkung bzw. Schaden) | 5 (= 80 - 100 % Wirkung bzw. Schaden) | 5 (= 80 - 100 % Wirkung bzw. Schaden) | 5 (= 80 - 100 % Wirkung bzw. Schaden) | 5 (= 80 - 100 % Wirkung bzw. Schaden) | 1 (= 0 - 20 % Wirkung bzw. Schaden) | 5 (= 80 - 100 % Wirkung bzw. Schaden) | 5 (= 80 - 100 % Wirkung bzw. Schaden) |
| CCOC(=O)C(C)(C)OC(OC(=O)c1cc(Oc2ccc(C(F)(F)F)cc2Cl)ccc1[N+](=O)[O-])C(Cl)(Cl)Cl (centres unmarked) [compound 30] | 5 (= 80 - 100 % Wirkung bzw. Schaden) | 4 (= 60 - 80 % Wirkung bzw. Schaden) | 5 (= 80 - 100 % Wirkung bzw. Schaden) | 5 (= 80 - 100 % Wirkung bzw. Schaden) | 5 (= 80 - 100 % Wirkung bzw. Schaden) | 2 (= 20 - 40 % Wirkung bzw. Schaden) | 5 (= 80 - 100 % Wirkung bzw. Schaden) | 5 (= 80 - 100 % Wirkung bzw. Schaden) | 5 (= 80 - 100 % Wirkung bzw. Schaden) | 5 (= 80 - 100 % Wirkung bzw. Schaden) |
| COC(=O)CC(OC(OC(=O)c1cc(Oc2ccc(C(F)(F)F)cc2Cl)ccc1[N+](=O)[O-])C(Cl)(Cl)Cl)C(=O)OC (centres unmarked) [compound 31] | 5 (= 80 - 100 % Wirkung bzw. Schaden) | 3 (= 40 - 60 % Wirkung bzw. Schaden) | 5 (= 80 - 100 % Wirkung bzw. Schaden) | 5 (= 80 - 100 % Wirkung bzw. Schaden) | 5 (= 80 - 100 % Wirkung bzw. Schaden) | 2 (= 20 - 40 % Wirkung bzw. Schaden) | 5 (= 80 - 100 % Wirkung bzw. Schaden) | 4 (= 60 - 80 % Wirkung bzw. Schaden) | 5 (= 80 - 100 % Wirkung bzw. Schaden) | 5 (= 80 - 100 % Wirkung bzw. Schaden) |
